Calls of active or inactive are those of the source. The calls are words filed in the database; no cut-off is given here. Peptide text beside a SMILES is read from it.

The species entered for experiment [1] is Homo sapiens. The experiment is described as follows: Inhibition of FITC-labelled LANA (1 to 23 residues) binding to recombinant human H2A/H2B harboring acidic patch at by fluorescence polarization assay. Background: Polarisation of emitted light reports the rotation of a fluorescent probe.
A further experiment deals with HeLa. Kind of experiment: (§1) Inhibition of FITC-labelled LANA peptide (1 to 23 residues) binding to human HeLa mononucleosomes by fluorescence polarization assay.
A short description of experiment [2]: as §1.
Experiment [3] is filed under the species Homo sapiens. Kind of experiment: Inhibition of FITC-labelled LANA (1 to 23 residues) binding to recombinant human H2A/H2B harboring acidic patch at 100 uM by fluorescence polarization assay relative to control.

One may read the inhibition as how much of the control response was suppressed. For the compound `CSCC[C@@H]1NC(=O)CNC(=O)[C@@H]2CCCN2C(=O)[C@H](C)NC(=O)CNC(=O)[C@H]([C@@H](C)O)NC(=O)[C@H](CO)NC(=O)[C@H](CCCNC(=N)N)NC(=O)CNC(=O)[C@H](CO)NC(=O)[C@H](CCCNC(=N)N)NC(=O)[C@H](CC(C)C)NC(=O)[C@H](CCCNC(=N)N)NC1=O` (cyclo(APGMRLRSGRSTG)), the inhibition entry in the experiment filed under Homo sapiens [1] is “Active”.
Broadly, the IC50 is the midpoint of a concentration-inhibition curve. Lower therefore signals inhibition by little substance. As usually defined, the Ki is a dissociation constant, usually derived from enzyme kinetics or from competition with a known ligand. With `CSCC[C@@H]1NC(=O)CNC(=O)CNC(=O)[C@H]([C@@H](C)O)NC(=O)[C@H](CO)NC(=O)[C@H](CCCNC(=N)N)NC(=O)CNC(=O)[C@H](CO)NC(=O)[C@H](CCCNC(=N)N)NC(=O)[C@H](CC(C)C)NC(=O)[C@H](CCCNC(=N)N)NC1=O` (cyclo(GGMRLRSGRST)), the inhibition entry with HeLa was “Dose-dependent effect”; in the experiment filed under Homo sapiens [3], 100%. The half-maximal inhibitory concentration (IC50) in experiment [2] came out at 204 nM. The same compound displayed an inhibition constant Ki in experiment [2] of 61 nM.
Turning to `CSCC[C@@H]1NC(=O)[C@H]([C@@H](C)O)NC(=O)[C@H](CO)NC(=O)[C@H](CCCNC(=N)N)NC(=O)CNC(=O)[C@H](CO)NC(=O)[C@H](CCCNC(=N)N)NC(=O)[C@H](CC(C)C)NC(=O)[C@H](CCCNC(=N)N)NC1=O` (cyclo(GRSTMRLRS)), the inhibition entry in the experiment listed under Homo sapiens [1] was “Active”.
Consider Ac-GMRLRSGRSTG-NH2, for which the inhibition result in the experiment with HeLa is “Dose-dependent effect”. Besides, the IC50 in experiment [2] was 614 nM. The inhibition result in the experiment listed under Homo sapiens [1] was “Active”.
For the compound Ac-MRLRSGRST-NH2, in the experiment listed under Homo sapiens [1], the inhibition entry was “Active”.
Same read-out and setting: to Ac-PGFRLRSGRSTGA-NH2 belongs “Active”.
Consider Ac-PGIRLRSGRSTGA-NH2, for which the inhibition entry in the experiment listed under Homo sapiens [1] was “Active”.
On the same count and under the same terms, to Ac-PGLRLRSGRSTGA-NH2 belongs “Active”.
The same measure, in the same setting: to Ac-PGMRLRSGRSHGA-NH2 belongs “Active”.
On to Ac-PGMRLRSGRSKGA-NH2, for which, in the experiment listed under Homo sapiens [1], the inhibition result is “Active”.
Turning to Ac-PGMRLRSGRSRGA-NH2, the inhibition entry in the experiment listed under Homo sapiens [1] is “Active”.
With Ac-PGMRLRSGRSTGA-NH2, the inhibition in the experiment listed under Homo sapiens [3] was 40%.
As for Ac-PGVRLRSGRSTGA-NH2, in the experiment listed under Homo sapiens [1], the inhibition result is “Active”.

The record behind these values is ChEMBL document CHEMBL4602652, “Development of cyclic peptide derivatives from the N-terminal region of LANA for targeting the nucleosome acidic patch” (Bioorg Med Chem Lett, 2020).
